Results on five molecules are retold here after patent US20170166516A1, “STABLE POLYMORPH FORM B OF TAPENTADOL HYDROCHLORIDE” (priority 2014, published 2017).

Structures are written as SMILES. Structures can show the parent of a compound that is named as a salt.

A short description of series [1]: Stability test of polymorphic Form B on storage, followed by PXRD. The note with it: for change in amount of polymorphic Form A in Form B on storage (PXRD): 2 month storage, ambient temperature, sample contains traces of Form A, Hydrochloride. The series is classed as physicochemical. On the procedure: In FIG. 1 the PXRD pattern of a stability sample experiment 1 are shown as well as PXRD pattern of Tapentadol hydrochloride in polymorphic crystal structure A and in polymorphic crystal structure B. The upper most pattern results from a sample (experiment 1) after a 4 month stability test at 27° C. and 42% RH (relative humidity). The second of top pattern results from the initial sample prior to the stability testing. […] The second last pattern represents the mono-crystal structure of pure Tapentadol Hydrochloride in polymorphic crystal Form B. The last pattern represents the mono-crystal structure of pure Tapentadol Hydrochloride in polymorphic crystal Form A.
For Powder X-Ray Diffraction (PXRD) the samples were placed onto a Si-wafer (Bragg-Brentano) or into a standard glass capillary (Ø=0.7 mm) (Example 2). The measurements were performed at room temperature with a D8 Bruker Advance Diffractometer (Cu-Kα1=1.54059 Å, Johansson primary beam monochromator, position sensitive detector) in transmission mode with rotation of the sample.

The conditions of series [2]: cited from earlier work; for stability of the crystalline form: ambient conditions, as disclosed in EP 1 612 203 A1, hydrochloride.

Turning to `CC[C@@H](c1cccc(O)c1)[C@@H](C)CN(C)C` [experiment 1, Tapentadol Hydrochloride], in series [1] (4 month stability test at 27° C. and 42% RH), the “transformation of polymorphic crystal Form B to Form A (PXRD pattern after stability test)” value is recorded as “does not show any tendency to disintegrate or to transform to polymorphic crystal Form A”. For the same molecule, the “transformation of Form B to polymorph A on storage (PXRD)” value in series [1] (several months of storage under ambient conditions, no seeds of Form A) is reported as “no transformation to polymorph A”. With `CC[C@@H](c1cccc(O)c1)[C@@H](C)CN(C)C` [Form B, Tapentadol hydrochloride], the “stability of the crystalline form” value in series [2] is given as “meta-stable only”. On to `CC[C@@H](c1cccc(O)c1)[C@@H](C)CN(C)C` [Form A, Tapentadol hydrochloride], for which the “stability of the crystalline form” value in series [2] is recorded as “stable under ambient conditions”. Turning to `CC[C@@H](c1cccc(O)c1)[C@@H](C)CN(C)C` [Example 3, Tapentadol Hydrochloride], the results for the “change in amount of polymorphic Form A in Form B on storage (PXRD)” value in series [1] and in series [1] (listed as experimental polymorphic Form B) were “increase of Form A in Form B was observed” and “amount of polymorphic Form A obviously increased”, respectively. Take `CC[C@@H](c1cccc(O)c1)[C@@H](C)CN(C)C` [stable polymorph B, Tapentadol hydrochloride]: the “duration of stability of polymorphic Form B” value in series [2] (ambient temperatures, stabilised by low alkyl carboxylic acids or esters added during crystallization, WO 2013 111161 A1) is “several months”.
